No end group written: not given here.
Columns and labels:
HFF‐1 cells = assay: Cellular uptake by flow cytometry; assay type: cell-based, human; details: HFF‐1, 30 min, 5 μM CF‐labeled peptides, serum-free medium, 37 °C, n ≥ 3 (Figure 3F)
Procedure: HeLa (90,000), MDA‐MB‐231 (120,000), and HFF‐1 (125,000) cells were seeded into a 24‐well plate. Cells were treated with the desired concentration of CF‐labeled peptide diluted in the appropriate serum‐free medium for 30 min at 37 °C and 5% CO2. Afterward, cells were washed once with PBS, detached from the plate using indicator‐free trypsin/EDTA and resuspended in indicator‐free culture medium. The cell mixture was measured on the Guava easyCyte flow cytometer (Merck) using the GRN‐B (520/30) detector.

[1] = Peptide incubation in media and identification of peptide species (LC-MS); assay type: physicochemical
Procedure: Hela cells (15,000) were seeded into a 96-well plate. Cells were treated with suitable peptide concentrations diluted in the corresponding serum-free culture medium. After 1 h peptide incubation under standard growth conditions, the positive control was either directly treated with lysis solution or the supernatant was exchanged for serum-free culture medium and the plate was incubated for further 5 h under growing conditions. The CytoTox-ONE™ Reagent was added and incubated at RT for 10 minutes. Finally, the Stop Solution was added and the fluorescence was measured at 595 nm (λex = 550 nm) on an infinite M200 plate reader (Tecan) and normalized to the positive control cells.
Red blood cells (RBCs) were washed three times in PBS by centrifug ing at 4 °C and 3,000 x g for 5 min and diluted to 5% in PBS. The desired peptide concentrations diluted in PBS were added into a 96-well plate. Next, 5% RBCs in PBS were added into the wells and incubated for 24 h at 37 °C and 5% CO2. As a positive control, RBCs were mixed with 10% Triton X-100 in PBS. After the incubation time was completed, the plate was centrifuged at 2,500 x g for 3 min at RT and 100 μL of the supernatant was transferred into a fresh 96 -well plate. Lastly, the absorption (λ=560 nm) was measured on the infinite M200 plate reader (Tecan). For the evaluation, the measured absorption of the Triton-X-100 treatment was set to a hemolysis rate […]
30,000 HeLa cells were seeded into an 8-well. Cells were stained for 10 min with the Hoechst 33342 nuclear dye and transferred to the microscope UltraView VoX Spinning Disk Confocal Microscope (Perkin Elmer). 5 µM CF-DC-2 were added to the cells. Cells were imaged on a Plan-Apo Tirf 60X oil objective (NA 1.49, Nikon) at 37°C a nd 5% CO2. […]
mixed with 5 µl TFA. […] Finally, the different peptide species were analyzed by analytical HPLC ESI-MS (LTQ XL, Thermo Scientific) using a gradient of 10% to 60% of acetonitrile (ACN) in ddH2O + 0.1% formic acid (FA) on an Aeris 3.6 µm PEPTIDE XB-C18 100 LC column (Phenomenex).

In the case of “GLRKRLRKFRNKKMDHHCPW-NH2 [DC‐2, CPP sC18* fused to the DHHC motif derived from ZDHHC2/3/6/7/15/16/20]”, the “cellular uptake (in words)” value (HFF‐1 cells) is reported as “internalized to a higher extent compared to DC‐4”, the “peptide species observed in medium lacking L‐cystine” value ([1]; 5 µM CF-DC-2 in serum-free medium lacking L-cystine and L-methionine, LC‐MS (Figure S8A)) is reported as “mostly reduced peptide was observed” and the “peptide species observed in normal cell culture medium” value ([1]; 5 µM CF-DC-2 in serum-free medium, before addition to HeLa cells and after 30 min at 37 °C, LC‐MS, Δmass = +119 Da (Figure S8A)) is reported as “S‐cysteinylation at the cysteine”. For the same substance, the “disulfide dimer formation in normal cell culture medium” value ([1]; 5 µM CF-DC-2 in serum-free medium, before addition to HeLa cells or after 30 min at 37 °C, LC‐MS (Figure S8A)) was “did not observe the disulfide dimer”.

From PMC12117998, “First Steps toward the Design of Peptides that Influence the Intracellular Palmitoylation Machinery” (Chembiochem, 2025)
